Laboratory results from US20220144768A1, “SOLID STATE FORMS OF SIPONIMOD” (DR. REDDY'S LABORATORIES LIMITED, priority 2019, published 2022).

Assay: Solid form stability on storage, analyzed using PXRD
Format: physicochemical
Description: The crystalline Form S2 of Siponimod prepared by the process of the present application is kept at about 25° C. After three months the solid was analyzed using PXRD. […] The crystalline Form S2 of Siponimod prepared by the process of the present application is kept at about 70° C. After three months the solid was analyzed using PXRD.
In another aspect, the present application provides stable amorphous Siponimod. […] The amorphous Siponimod prepared by the process of the present application is kept in a […] at about 5° C. After one year the solid was analyzed using PXRD.
The amorphous form of siponimod prepared in example-3 was kept in an amber colored glass bottle at 2-8° C. for one year and the solid was analyzed using PXRD.

Row | stability of the crystalline form (time stable) (crystalline Form S2, storage, PXRD) | solid form after storage (PXRD) (kept at about 25° C., after three months, PXRD matches FIG. 3) | solid form after storage (PXRD) (kept at about 70° C., after three months, PXRD matches FIG. 3) | stability of the amorphous form (time stable) (amorphous form, storage, PXRD) | solid form after storage (PXRD) (kept in a freezer at about 5° C., after one year, PXRD shown in FIG. 7) | SMILES
1 | stable for at least three months | remains in crystalline Form S2 | remains in crystalline Form S2 | – | – | CCc1cc(/C(C)=N/OCc2ccc(C3CCCCC3)c(C(F)(F)F)c2)ccc1CN1CC(C(=O)O)C1 [crystalline Form S2 of Siponimod]
2 | – | – | – | stable for at least one year | remains in amorphous form | CCc1cc(/C(C)=N/OCc2ccc(C3CCCCC3)c(C(F)(F)F)c2)ccc1CN1CC(C(=O)O)C1 [amorphous Siponimod]
